Data on 27 compounds can be found in US9290451B2 (Hoffmann-La Roche Inc., priority 2011, dated 2016).

The structures appear in SMILES notation.

Assay [1] has as its target human CB1 receptors (Homo sapiens (Human), UniProt P21554). The assay can be described thus: cAMP assay, CHO cells expressing human CB1 receptors. The following applies: CHO cells expressing human CB1, cAMP; read-out: human CB1 EC50. It is filed as cell-based. As for the experimental part: (§1) CHO cells expressing human CB1 or CB2 receptors are seeded 17-24 hours prior to the experiment 50.000 cells per well in a black 96 well plate with flat clear bottom (Corning Costar #3904) in DMEM (Invitrogen No. 31331), 1×HT supplement, with 10% fetal calf serum and incubated at 5% CO2 and 37° C. in a humidified incubator. The growth medium was exchanged with Krebs Ringer Bicarbonate buffer with 1 mM IBMX and incubated at 30° C. for 30 min Compounds were added to a final assay volume of 100 μl and incubated for 30 min at 30° C. Using the cAMP-Nano-TRF detection kit the assay (Roche Diagnostics) was stopped by the addition of 50 μl lysis reagent (Tris, NaCl, 1.5% Triton X100, 2.5% NP40, 10% NaN3) and 50 μl detection solutions (20 μM mAb Alexa700-cAMP 1:1, and 48 μM Ruthenium-2-AHA-cAMP) and shaken for 2 h at room temperature. The time-resolved energy transfer is measured by a TRF reader (Evotec Technologies GmbH), equipped with a ND:YAG laser as excitation source. The plate is measured twice with the excitation at 355 nm and at the emission with a delay of 100 ns and a gate of 100 ns, total exposure time 10 s at 730 (bandwidth 30 nm) or 645 nm (bandwidth 75 nm), respectively. The FRET signal is calculated as follows: FRET=T730-Alexa730-P(T645-B645) with P═Ru730-B730/Ru645-B645, where T730 is the test well measured at […], T645 is the test well measured at 645 nm, B730 and B645 are the buffer controls at 730 nm and 645 nm, respectively. cAMP content is determined from the function of a standard curve spanning from 10 μM to 0.13 nM cAMP.
(§2) EC50 values were determined using Activity Base analysis (ID Business Solution, Limited). The EC50 values for a wide range of cannabinoid agonists generated from this assay for reference compounds were in agreement with the values published in the scientific literature.
(Cyclic AMP is a second messenger, typically raised through Gs and lowered through Gi signalling.)

Assay [2] deals with human CB2 receptors (Homo sapiens (Human), UniProt P34972). The assay is described as follows: cAMP assay, CHO cells expressing human CB2 receptors. It is filed as cell-based. The following applies: CHO cells expressing human CB2, cAMP; read-out: human CB2 EC50. As for the experimental part: as §1, §2
human CB2 receptors, sequence (P34972 whole entry): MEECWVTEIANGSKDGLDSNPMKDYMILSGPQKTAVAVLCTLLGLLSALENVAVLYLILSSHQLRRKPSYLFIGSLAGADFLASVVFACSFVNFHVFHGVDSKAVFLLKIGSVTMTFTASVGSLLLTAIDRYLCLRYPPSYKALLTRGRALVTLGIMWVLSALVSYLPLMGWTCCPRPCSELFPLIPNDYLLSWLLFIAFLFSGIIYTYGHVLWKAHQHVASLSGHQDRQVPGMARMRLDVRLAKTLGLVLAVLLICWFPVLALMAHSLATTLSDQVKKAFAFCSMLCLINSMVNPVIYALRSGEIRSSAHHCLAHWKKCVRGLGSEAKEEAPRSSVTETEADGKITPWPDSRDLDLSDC

human CB1 receptors, sequence (P21554 whole entry): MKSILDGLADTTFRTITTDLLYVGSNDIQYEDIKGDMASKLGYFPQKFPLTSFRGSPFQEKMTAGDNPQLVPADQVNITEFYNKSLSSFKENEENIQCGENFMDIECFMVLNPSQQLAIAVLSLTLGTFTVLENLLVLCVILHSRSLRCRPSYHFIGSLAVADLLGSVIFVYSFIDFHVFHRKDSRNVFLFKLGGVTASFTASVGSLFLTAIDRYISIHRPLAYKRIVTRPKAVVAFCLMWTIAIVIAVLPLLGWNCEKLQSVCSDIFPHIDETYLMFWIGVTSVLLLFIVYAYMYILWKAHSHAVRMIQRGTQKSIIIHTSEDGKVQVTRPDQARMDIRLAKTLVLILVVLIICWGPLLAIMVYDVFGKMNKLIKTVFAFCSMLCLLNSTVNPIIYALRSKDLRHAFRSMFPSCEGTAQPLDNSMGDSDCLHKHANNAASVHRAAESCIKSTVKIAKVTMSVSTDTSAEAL

On to `O=C(N[C@@H](CC1CC1)c1nccs1)c1ccc(C2CCOCC2)c(OCC2CC2)n1` [Example 59, 6-Cyclopropylmethoxy-5-(tetrahydro-pyran-4-yl)-pyridine-2-carboxylic acid ((S)-2-cyclopropyl-1-thiazol-2-yl-ethyl)-amide], for which the EC50 in assay [1] was greater than 10000 nM; in assay [2] it was 32.5 nM.

With `O=C(N[C@@H](CC1CC1)c1nccs1)c1cccc(-c2cccc(Cl)c2)n1` [Example 60, 6-(3-Chloro-phenyl)-pyridine-2-carboxylic acid ((S)-2-cyclopropyl-1-thiazol-2-yl-ethyl)-amide], the values for the EC50 in assay [1] and in assay [2] were greater than 10000 nM and 62.2 nM, respectively.

Take `CC(C)(NC(=O)c1ccc(N2CCCC2=O)c(OCC2CC2)n1)c1ncco1` [Example 61, 6-Cyclopropylmethoxy-5-(2-oxo-pyrrolidin-1-yl)-pyridine-2-carboxylic acid (1-methyl-1-oxazol-2-yl-ethyl)-amide]: the half-maximal effective concentration (EC50) in assay [1] was greater than 10000 nM; in assay [2], 1480 nM.

On to `Cc1ccc(C(=O)NC(C)(C)c2nccs2)nc1OCC1CC1` [Example 62, 6-Cyclopropylmethoxy-5-methyl-pyridine-2-carboxylic acid (1-methyl-1-thiazol-2-yl-ethyl)-amide], for which the EC50 in assay [1] was found to be 561 nM; in assay [2], 11.5 nM.

As to `CC(C)(NC(=O)c1ccc(N2CCCC2)c(OCC2CC2)n1)C1=NCCO1` [Example 63, 6-Cyclopropylmethoxy-5-pyrrolidin-1-yl-pyridine-2-carboxylic acid [1-(4,5-dihydro-oxazol-2-yl)-1-methyl-ethyl]-amide], the concentration for a half-maximal effect (EC50) is greater than 10000 nM in assay [1] and 112 nM in assay [2].

Consider `Cc1ccc(C(=O)N[C@@H](CC(C)C)c2nccs2)nc1OCC1CC1` [Example 64, 6-Cyclopropylmethoxy-5-methyl-pyridine-2-carboxylic acid ((S)-3-methyl-1-thiazol-2-yl-butyl)-amide], for which the EC50 in assay [1] stood at 1460 nM; in assay [2], 18.9 nM.

Take `Cc1ccc(C(=O)N[C@@H](CC2CC2)c2nccs2)nc1OCC1CC1` [Example 65, 6-Cyclopropylmethoxy-5-methyl-pyridine-2-carboxylic acid ((S)-2-cyclopropyl-1-thiazol-2-yl-ethyl)-amide]: the concentration for a half-maximal effect (EC50) in assay [1] was greater than 10000 nM; in assay [2] it was 33.8 nM.

In the case of `O=C(NN1CCCCC1)c1ccc(Cl)c(-c2cccc(Cl)c2)n1` [Example 66, 5-Chloro-6-(3-chloro-phenyl)-pyridine-2-carboxylic acid piperidin-1-ylamide], the concentration giving a half-maximal response (EC50) in assay [1] is greater than 10000 nM; in assay [2], 216 nM.

As to `CNC(=O)C(C)(C)NC(=O)c1ccc(C2CC2)c(-c2cccc(Cl)c2)n1` [Example 67, 6-(3-Chloro-phenyl)-5-cyclopropyl-pyridine-2-carboxylic acid (1-methyl-1-methylcarbamoyl-ethyl)-amide], the EC50 is greater than 10000 nM in assay [1] and 797 nM in assay [2].

For `O=C(NN1CCCCC1)c1cccc(OCC2CC2)n1` [Example 68, 6-Cyclopropylmethoxy-pyridine-2-carboxylic acid piperidin-1-ylamide], the EC50 is greater than 10000 nM in assay [1] and 429 nM in assay [2].

For `CC(C)(NC(=O)c1ccc(N2CC(F)(F)C2)c(OCC2CC2)n1)c1nccs1` [Example 69, 6-Cyclopropylmethoxy-5-(3,3-difluoro-azetidin-1-yl)-pyridine-2-carboxylic acid (1-methyl-1-thiazol-2-yl-ethyl)-amide], the concentration giving a half-maximal response (EC50) in assay [1] amounted to 380 nM; in assay [2] it was 6 nM.

Consider `CCC(CC)(NC(=O)c1ccc(C)c(-c2cccc(Cl)c2)n1)C(=O)NC` [Example 70, 6-(3-Chloro-phenyl)-5-methyl-pyridine-2-carboxylic acid (1-ethyl-1-methylcarbamoyl-propyl)-amide], for which the EC50 was greater than 10000 nM in assay [1] and 57.4 nM in assay [2].

As to `CCC(CC)(NC(=O)c1ccc(C2CC2)c(-c2cccc(Cl)c2)n1)C(=O)NC` [Example 71, 6-(3-Chloro-phenyl)-5-cyclopropyl-pyridine-2-carboxylic acid (1-ethyl-1-methylcarbamoyl-propyl)-amide], the concentration for a half-maximal effect (EC50) in assay [1] was greater than 10000 nM; in assay [2] it was 61.2 nM.

For `CC(C)(NC(=O)c1cccc(-c2cccc(Cl)c2)n1)c1ncon1` [Example 72, 6-(3-Chloro-phenyl)-pyridine-2-carboxylic acid (1-methyl-1-[1,2,4]oxadiazol-3-yl-ethyl)-amide], the EC50 was greater than 10000 nM in assay [1] and 32.8 nM in assay [2].

In the case of `CC(C)(NC(=O)c1ccc(C2CC2)c(OCC2CC2)n1)c1ncon1` [Example 73, 5-Cyclopropyl-6-cyclopropylmethoxy-pyridine-2-carboxylic acid (1-methyl-1-[1,2,4]oxadiazol-3-yl-ethyl)-amide], the results for the EC50 in assay [1] and in assay [2] were 1320 nM and 40.7 nM, respectively.

In the case of `CCC(CC)(NC(=O)c1ccc(C2CC2)c(OCC2CC2)n1)C(=O)NC` [Example 74, 5-Cyclopropyl-6-cyclopropylmethoxy-pyridine-2-carboxylic acid (1-ethyl-1-methylcarbamoyl-propyl)-amide], the concentration for a half-maximal effect (EC50) in assay [1] was greater than 10000 nM; in assay [2] it was 8.9 nM.

As to `CC(C)(NC(=O)c1ccc(N2CC(O)C2)c(OCC2CC2)n1)c1nccs1` [Example 75, 6-Cyclopropylmethoxy-5-(3-hydroxy-azetidin-1-yl)-pyridine-2-carboxylic acid (1-methyl-1-thiazol-2-yl-ethyl)-amide], the EC50 in assay [1] was greater than 10000 nM; in assay [2], 15.2 nM.

Turning to `CCC(CC)(NC(=O)c1cccc(-c2ccc(Cl)cc2)n1)C(=O)NC` [Example 76, 6-(4-Chloro-phenyl)-pyridine-2-carboxylic acid (1-ethyl-1-methylcarbamoyl-propyl)-amide], the results for the EC50 in assay [1] and in assay [2] were greater than 10000 nM and 185 nM, respectively.

On to `CC(C)(NC(=O)c1ccc(N2CCCS2(=O)=O)c(OCC2CC2)n1)c1nccs1` [Example 77, 6-(Cyclopropylmethoxy)-5-(1,1-dioxido-isothiazolidin-2-yl)-N-[2-(1,3-thiazol-2-yl)propan-2-yl]pyridine-2-carboxamide], for which the EC50 is greater than 10000 nM in assay [1] and 1400 nM in assay [2].

As for `CCC(CC)(NC(=O)c1ccc(N2CCC(F)(F)C2)c(OCC2CC2)n1)C(=O)NC` [Example 78, 6-Cyclopropylmethoxy-5-(3,3-difluoro-pyrrolidin-1-yl)-pyridine-2-carboxylic acid (1-ethyl-1-methylcarbamoyl-propyl)-amide], the concentration giving a half-maximal response (EC50) in assay [1] was greater than 10000 nM; in assay [2], 4.6 nM.

On to `O=C(c1ccc(N2CCC(F)(F)C2)c(OCC2CC2)n1)N1CCS(=O)(=O)CC1` [Example 79], for which the results for the EC50 in assay [1] and in assay [2] were greater than 10000 nM and 2040 nM, respectively.

On to `CNC(=O)C(C)(C)NC(=O)c1ccc(N2CCC(F)(F)C2)c(OCC2CC2)n1` [Example 80, 6-Cyclopropylmethoxy-5-(3,3-difluoro-pyrrolidin-1-yl)-pyridine-2-carboxylic acid (1-methyl-1-methylcarbamoyl-ethyl)-amide], for which the concentration giving a half-maximal response (EC50) was 5.8 nM in assay [1] and 134 nM in assay [2].

`CCC(CC)(NC(=O)c1ccc(OC)c(-c2cccc(Cl)c2)n1)C(=O)NC` [Example 81, 6-(3-Chloro-phenyl)-5-methoxy-pyridine-2-carboxylic acid (1-ethyl-1-methylcarbamoyl-propyl)-amide]: the concentration giving a half-maximal response (EC50) is greater than 10000 nM in assay [1] and 417 nM in assay [2].

In the case of `COc1ccc(C(=O)NC(C)(C)c2nccs2)nc1-c1cccc(Cl)c1` [Example 82, 6-(3-Chloro-phenyl)-5-methoxy-pyridine-2-carboxylic acid (1-methyl-1-thiazol-2-yl-ethyl)-amide], the results for the concentration giving a half-maximal response (EC50) in assay [1] and in assay [2] were 2290 nM and 140 nM, respectively.

For `CC(C)(NC(=O)c1ccc(Cl)c(OCC2CC2)n1)c1ncon1` [Example 83, 5-Chloro-6-cyclopropylmethoxy-pyridine-2-carboxylic acid (1-methyl-1-[1,2,4]oxadiazol-3-yl-ethyl)-amide], the half-maximal effective concentration (EC50) is greater than 10000 nM in assay [1] and 347 nM in assay [2].

As for `O=C(NC1CCCCC1O)c1cccc(C2CCCCC2)n1` (stereo not drawn) [Example 84, 6-Cyclohexyl-pyridine-2-carboxylic acid (2-hydroxy-cyclohexyl)-amide], the EC50 was greater than 10000 nM in assay [1] and 292 nM in assay [2].

Consider `CCC(CC)(NC(=O)c1ccc(C2CCOCC2)c(OCC2CC2)n1)C(=O)NC` [Example 85, 6-Cyclopropylmethoxy-5-(tetrahydro-pyran-4-yl)-pyridine-2-carboxylic acid (1-ethyl-1-methylcarbamoyl-propyl)-amide], for which the EC50 in assay [1] was greater than 10000 nM; in assay [2], 186 nM.

A word on the EC50: it is the concentration that produces a half-maximal response.
